How the values were obtained:
[1] = test system: binge ethanol consumption; assay: Binge ethanol consumption, minocycline derivatives (FIGS. 8C to 15C); assay type: in vivo; details: figure legend only, values not given
[2] = test system: Drinking In the Dark (DID) murine model of binge drinking; assay: Drinking In the Dark (DID) murine model of binge drinking; assay type: in vivo, mice; details: 0, 25, 35, 50 and 100 mg/kg p.o. vs control; n=4/group; p=0.004; dose-dependent
Method: Using a standard Drinking In the Dark (DID) murine model of binge drinking, we tested the effect of 0, 25, 35, 50 and 100 mg/kg per os (p.o.) acetylated minocycline (derivative Y, or CMM1) vs control.

DBA/2J mice = assay: Alcohol withdrawal, Handling Induced Convulsion scores; assay type: in vivo
Method: Female and male DBA/2J mice were tested with CMM1, 100 mg/kg per p.o., at 2 hrs following 4 g/kg 20% ethanol in saline. Shown are the Handling Induced Convulsion scores, background subtracted and summed over 24 hours. […] Mean±SEM, n=5/group.

E. coli = E. coli zone of inhibition (ZOI) and recovered colony forming units (CFU) per disk; assay type: cell-based; details: dose response
Method: Minocycline and two acetylated derivatives, CMM1 (B) and CMM2 (Y), were tested in a dose response manner for A) zone of inhibition (ZOI) and B) recovered colony forming units (CFU) per disk.

AUD traits = details: seven tetracyclines tested; cited from earlier work
[3] = cited from earlier work
DID ethanol consumption = DID ethanol consumption after "sterilization" of the GI microbiome; assay type: in vivo, mice; details: ten-day ampicillin, neomycin, metronidazole, vancomycin; tigecycline 100 mg/kg i.p.; n=7
Method: A ten-day “sterilization” treatment with ampicillin, neomycin, metronidozale and vancomycin was used. Bedding was changed daily to avoid repopulation. DID was started on day 11 after one day of no metronidazole. Tigecycline was given at 100 mg/kg intraperitoneal (i.p.) n=7, mean±SEM.

DID consumption = DID consumption after intracerebroventricular (ICV) drug; assay type: in vivo, mice; details: 3 ul of drug (9 mg/ml) icv 20 hrs prior to DID testing; n=9-11; p<0.01
Method: To test the hypothesis that tigecycline works at the level of the CNS, rather than the PNS, 3 ul of drug (9 mg/ml) was given icy 20 hrs prior to DID testing. n=9-11, mean±SEM, **p<0.01.

In the case of CCCCOc1ccc(N(C)C)c2c1C(=O)C1=C(O)C3(O)C(=O)C(C(N)=O)=C(O)C(N(C)C)C3CC1C2 (stereo not shown) [Butyl Ether Minocycline, 10-Butoxy-4,7-bis-dimethylamino-3,12,12a-trihydroxy-1,11-dioxo-1,4,4a,5,5a,6,11,12a-octahydro-naphthacene-2-carboxylic acid amide], the binge ethanol consumption [1] is reported as “reduction of binge ethanol consumption”.

In the case of CC(=O)NC(=O)c1c(OC(C)=O)c2c(c(N(C)C)c1OC(C)=O)CC1Cc3c(N(C)C)ccc(OC(C)=O)c3C(=O)C1=C2OC(C)=O (stereo not shown) [CMM1], the “ethanol consumption (DID)” value [2] is reported as “significantly reduced drinking”, the “alcohol withdrawal symptoms (Handling Induced Convulsion scores summed over 24 hours)” value (DBA/2J mice; 100 mg/kg p.o. at 2 hrs following 4 g/kg 20% ethanol, female and male DBA/2J mice, n=5/group) is reported as “reduced alcohol withdrawal symptoms” and the “efficacy on withdrawal compared with minocycline” value (DBA/2J mice; 100 mg/kg p.o., DBA/2J mice) is reported as “more effective than the parent drug, minocycline”. The “efficacy on withdrawal, females vs males” value (DBA/2J mice; 100 mg/kg p.o., DBA/2J mice) was “more effective in females” and the “antibiotic activity (ZOI and CFU per disk)” value (E. coli) was “loss of antibiotic activity even at high doses”.

For CC(=O)NC(=O)c1c(OC(C)=O)c2c(c(N(C)C)c1OC(C)=O)CC1Cc3c(N(C)C)ccc(OC(C)=O)c3C(=O)C1=C2O (stereo not shown) [CMM2], the “antibiotic activity (ZOI and CFU per disk)” value (E. coli) was “loss of antibiotic activity even at high doses”.

In the case of CC(=O)NC(=O)c1c(O)cc2c(c1O)C(O)=C1C(=O)c3c(OC(C)=O)ccc(N(C)C)c3CC1C2 (stereo not shown) [De Methyl Diacetate Minocycline, Acetic acid 9-acetylcarbamoyl-4-dimethylamino-8,10,11-trihydroxy-12-oxo-5,5a,6,12-tetrahydro-naphthacen-1-yl ester], the binge ethanol consumption [1] is reported as “reduction of binge ethanol consumption”.

For C[C@H]1c2cccc(O)c2C(=O)C2=C(O)[C@]3(O)C(=O)C(C(N)=O)=C(O)[C@@H](N(C)C)[C@@H]3[C@@H](O)[C@@H]21 [Doxycycline], the “efficacy against AUD traits” value (AUD traits) is given as “effective”.

With CCOc1ccc(N(C)C)c2c1C(=O)C1=C(O)C3(O)C(=O)C(C(N)=O)=C(O)C(N(C)C)C3CC1C2 (stereo not shown) [Ethyl Ether Minocycline, 4,7-Bis-dimethylamino-10-ethoxy-3,12,12a-trihydroxy-1,11-dioxo-1,4,4a,5,5a,6,11,12a-octahydro-naphthacene-2-carboxylic acid amide] the binge ethanol consumption [1] was “reduction of binge ethanol consumption”.

For COc1ccc(N(C)C)c2c1C(=O)C1=C(O)C3(O)C(=O)C(C(N)=O)=C(O)C(N(C)C)C3CC1C2 (stereo not shown) [Methyl Ether Minocycline, 4,7-Bis-dimethylamino-3,12,12a-trihydroxy-10-methoxy-1,11-dioxo-1,4,4a,5,5a,6,11,12a-octahydro-naphthacene-2-carboxylic acid amide], the binge ethanol consumption [1] was “reduction of binge ethanol consumption”.

With COc1ccc(N(C)C)c2c1C(=O)C1=C(O)c3c(O)c(C(=O)NC(C)=O)c(O)c(N(C)C)c3CC1C2 (stereo not shown) [Methyl Ether N-Monoacetate Minocycline, 4,7-Bis-dimethylamino-1,3,12-trihydroxy-10-methoxy-11-oxo-5,5a,6,11-tetrahydro-naphthacene-2-carboxylic acid acetyl-amide] the binge ethanol consumption [1] was “reduction of binge ethanol consumption”.

For COc1ccc(N(C)C)c2c1C(=O)C1=C(O)c3c(c(N(C)C)c(OC(C)=O)c(C(=O)NC(C)=O)c3OC(C)=O)CC1C2 (stereo not shown) [Methyl Ether Tri Acetate Minocycline, Acetic acid 4-acetoxy-3-acetylcarbamoyl-1,10-bis-dimethylamino-5-hydroxy-7-methoxy-6-oxo-6,11,11a,12-tetrahydro-naphthacen-2-yl ester], the binge ethanol consumption [1] was “reduction of binge ethanol consumption”.

For CN(C)c1ccc(O)c2c1CC1CC3C(N(C)C)C(O)=C(C(N)=O)C(=O)C3(O)C(O)=C1C2=O (stereo not shown) [Minocycline, 4.7-Bis-dimcthylamino-3,10,12,12a-tctrahydroxy-1,11-dioxo-1,4.4a,5,5a,6,11,12 a-octahydro-naphthacene-2-carboxylic acid amide], the “efficacy against AUD traits” value (AUD traits) is given as “effective”.

In the case of CN(C)[C@@H]1C(O)=C(C(N)=O)C(=O)[C@@]2(O)C(O)=C3C(=O)c4c(O)cccc4[C@@](C)(O)[C@H]3[C@H](O)[C@@H]12 [Oxytetracycline], the LogD [3] is given as −4.25 and the LogP [3] is given as −1.5.

In the case of CC(=O)NC(=O)c1c(OC(C)=O)c2c(c(N(C)C)c1OC(C)=O)CC1Cc3c(N(C)C)ccc(OC(C)=O)c3C(=O)C1=C2OC(C)=O (stereo not shown) [Penta Acetyl Minocycline, Acetic acid 3,10,12-triacetoxy-2-acetylcarbamoyl-4,7-bis-dimethylamino-11-oxo-5,5a,6,11-tetrahydro-naphthacen-1-yl ester], the binge ethanol consumption [1] is reported as “reduction of binge ethanol consumption”.

With CCCOc1ccc(N(C)C)c2c1C(=O)C1=C(O)C3(O)C(=O)C(C(N)=O)=C(O)C(N(C)C)C3CC1C2 (stereo not shown) [Propyl Ether Minocycline, 4,7-Bis-dimethylamino-3,12,12a-trihydroxy-1,11-dioxo-10-propoxy-1,4,4a,5,5a,6,11,12a-octahydro-naphthacene-2-carboxylic acid amide] the binge ethanol consumption [1] was “reduction of binge ethanol consumption”.

For CC(=O)NC(=O)c1c(OC(C)=O)c2c(c(N(C)C)c1OC(C)=O)CC1Cc3c(N(C)C)ccc(OC(C)=O)c3C(=O)C1=C2O (stereo not shown) [Tetra Acetyl Minocycline, Acetic acid 3,10-diacetoxy-2-acetylcarbamoyl-4,7-bis-dimethylamino-12-hydroxy-11-oxo-5,5a,6,11-tetrahydro-naphthacen-1-yl ester], the binge ethanol consumption [1] was “reduction of binge ethanol consumption”.

In the case of CN(C)c1cc(NC(=O)CNC(C)(C)C)c(O)c2c1C[C@H]1C[C@H]3[C@H](N(C)C)C(O)=C(C(N)=O)C(=O)[C@@]3(O)C(O)=C1C2=O [Tigecycline], the “efficacy against AUD traits” value (AUD traits) is given as “effective”, the “DID ethanol consumption / tigecycline efficacy, sterilized vs not” value (DID ethanol consumption) is given as “No significant difference” and the DID consumption (DID consumption) is given as “reduced DID consumption”.
